Experimental data published in paper PMC6709534 (Journal of the American Chemical Society, 2015).

Legend:
H. pylori [1] = test: H. pylori growth on 5% horse blood agar; format: cell-based, Helicobacter pylori; conditions: versus ∼8 ng/mL of the 10 best MTAN inhibitors
H. pylori [2] = conditions: antibiotics used in multidrug therapy and moenomycin A; cited from earlier work

SMILES | fold weaker than the 10 best MTAN inhibitors (IC90 ratio) (H. pylori [1]) [fold] | IC90 of current antibiotics against H. pylori (H. pylori [2])
Cc1ncc([N+](=O)[O-])n1CCO [Metronidazole] | 2000 | 16 000 ng/mL
C=C(C/C=C(\C)CCC=C(C)C)CCC(C)(C)/C=C/CC/C(C)=C\CO[C@H](COP(=O)(O)O[C@H]1O[C@H](C(N)=O)[C@@](C)(O)[C@H](OC(N)=O)[C@H]1O[C@@H]1O[C@H](CO[C@@H]2O[C@H](CO)[C@@H](O)[C@H](O)[C@H]2O)[C@@H](O[C@@H]2O[C@H](C)[C@@H](O[C@@H]3O[C@H](C(=O)NC4=C(O)CCC4=O)[C@H](O)[C@H](O)[C@H]3O)[C@H](O)[C@H]2NC(C)=O)[C@H](O)[C@H]1NC(C)=O)C(=O)O [moenomycin A] |  | 2000 ng/mL
C[C@H]1COc2c(N3CCN(C)CC3)c(F)cc3c(=O)c(C(=O)O)cn1c23 [levofloxacin] |  | 1000 ng/mL
CC[C@H]1OC(=O)[C@H](C)[C@@H](O[C@H]2C[C@@](C)(OC)[C@@H](O)[C@H](C)O2)[C@H](C)[C@@H](O[C@@H]2O[C@H](C)C[C@H](N(C)C)[C@H]2O)[C@](C)(OC)C[C@@H](C)C(=O)[C@H](C)[C@@H](O)[C@]1(C)O [clarithromycin] |  | 8000 ng/mL
CN(C)[C@@H]1C(O)=C(C(N)=O)C(=O)[C@@]2(O)C(O)=C3C(=O)c4c(O)cccc4[C@@](C)(O)[C@H]3C[C@@H]12 [tetracycline] |  | 500 ng/mL
